{"source": "patent US20240299358A1", "about": "“COMPOSITIONS AND METHODS FOR DIAGNOSIS AND TREATMENT OF AUTOIMMUNE DISEASES” (DUKE UNIVERSITY, priority 2021, published 2024)", "system": "eHsp90", "assay": "In vivo imaging of eHsp90 expression in T cell transfer mouse model of IBD", "conditions": "10 nmoles IV", "method": "The T cell transfer model of IBD was utilized to evaluate the imaging potential of HS-131 for other autoimmune diseases. Naïve T cells isolated from female donor mice were transferred into SCID mice via IP injection. 3-5 weeks post transfer mice develop inflammation, an extended colon and epithelial hyperplasia. 24 hours post HS-131 tail vein injection mice were cryopreserved and imaged as previously mentioned. […] Experiments represent one mouse.\nIBD Disease: On study day 0, Balb/C mice were terminated, and spleens obtained for CD4+CD45RBhigh cell isolation. After cells had been sorted and obtained, each animal received an IP injection of at a minimum 4×10^5 cells (200 μl/mouse injections). […]\nCryoViz™ Imaging: Whole mice were imaged at 10.23 μm×10.23 μm in-plane resolution using an Olympus MVX-10 microscope with a 1X objective and 0.63× magnification and 40 μm section thickness, using the Cryo Viz™ (BioInVision, Inc., Cleveland, USA). CryoViz™ is a fully automated, serial sectioning-and-imaging system which provides 3-dimensional, tiled, microscopic anatomical bright field and molecular fluorescence images over large fields-of-view such as a whole mouse. Images were acquired using a dual band FITC/TxRed fluorescence filter (Chroma, Inc., Rockingham, VT), a liquid crystal RGB filter and a low-noise monochrome camera. […]", "data": [{"compound": "Cc1nn(-c2ccc(C(N)=O)c(NCCCOCCOCCOCCOCCOCCCNCc3ccc(C(=C\\C=C4\\N(CCCCS(=O)(=O)[O-])c5ccccc5C4(C)C)/C=C/C4=[N+](CCCCS(=O)(=O)O)c5ccccc5C4(C)C)cc3)c2)c2c1C(=O)CC(C)(C)C2", "note": "[HS-131]", "values": [{"measurement": "uptake in joints or paws of IBD mouse", "setting": "24 hours post injection", "result": "no uptake"}, {"measurement": "fluorescence from the inflamed bowels of IBD mouse", "setting": "24 hours post injection (FIG. 7A)", "result": "extensive fluorescent signaling"}]}]}
